Data: patent US4008285A, “Process for making xylitol” (priority 1975, dated 1977)

Test: Solubility of galactitol (no method)
Format: physicochemical
Settings: galactitol tends to crystallize with xylitol crystals; no solvent or temperature printed

With OC[C@@H](O)[C@H](O)[C@H](O)[C@@H](O)CO [galactitol] the solubility was “very low solubility”.
